Source: ChEMBL document CHEMBL6103598, “One-Pot Synthesis of Novel Tetrasubstituted α-Aminophosphonates Derived from α-Methylphosphoserine and In Vivo Evaluation as Anti-Inflammatory Agents” (J Med Chem, 2025)
Active and inactive are the calls of the source. The calls are words filed in the database; no cut-off is given here.

Columns and labels:
Mus musculus [1] = test: Antiinflammatory activity against TPA-induced ear edema in female CD1 mouse model assessed as reduction in ear edema administered topically incubated for 4 hrs measured per ear; type: functional, organism-based
Mus musculus [2] = test: Antiinflammatory activity against TPA-induced ear edema in female CD1 mouse model assessed as reduction in ear edema by measuring maximum efficacy at 0.25 to 1.25 mg measured per ear incubated for 4 hrs administered topically relative to control; type: functional; conditions: CD1, topical, dose 0.25-1.25 mg
Mus musculus [3] = test: Antiinflammatory activity against TPA-induced ear edema in female CD1 mouse model assessed as reduction in ear edema by measuring effective dose measured per ear incubated for 4 hrs administered topically; type: functional
Mus musculus [4] = test: Potency index, ratio of Indomethacin ED50 to test compound ED50 for antiinflammatory activity against TPA-induced ear edema in female CD1 mouse model assessed as reduction in ear edema by measuring effective dose measured per ear incubated for 4 hrs administered topically; type: functional
Mus musculus [5] = test: Antiinflammatory activity against TPA-induced ear edema in female CD1 mouse model assessed as decrease in NLR value at 5.7 mg measured per ear administered topically incubated for 4 hrs by microscopic analysis relative to control; type: functional; set-up: scale not given: the % may be the effect or the level left
Mus musculus [6] = test: Antiinflammatory activity against CFA-induced paw edema in female CD1 mouse model assessed as reduction in paw swelling by measuring AUC at 10 mg/kg, po preincubated with compound for 30 mins followed by CFA stimulation and measured after 2 to 6 hrs relative to control; type: functional; set-up: scale not given: the % may be the effect or the level left; conditions: time 2.5-6.5 hrs
Mus musculus [7] = test: Antiinflammatory activity against CFA-induced paw edema in female CD1 mouse model assessed as reduction in paw swelling at 10 mg/kg, po preincubated with CFA followed by compound addition and measured after 25 to 28 hrs relative to control; type: functional; set-up: scale not given: the % may be the effect or the level left; conditions: time 25-28 hrs
[8] = Octanol/water partition coefficient, logP of compound by shake flask method; type: physicochemical
Mus musculus [9] = test: Antiinflammatory activity against CFA-induced paw edema in female CD1 mouse model assessed as reduction in paw swelling at 10 mg/kg, po preincubated with compound for 30 mins followed by CFA stimulation and measured after 2 to 6 hrs; type: functional, organism-based; conditions: time 2.5-6.5 hrs
Mus musculus [10] = test: Antiinflammatory activity against CFA-induced paw edema in female CD1 mouse model assessed as reduction in paw swelling at 10 mg/kg, po preincubated with compound for 30 mins followed by CFA stimulation and measured after 24 hrs; type: functional, organism-based; conditions: time 24.5 hrs
Mus musculus [11] = test: Antiinflammatory activity against TPA-induced ear edema in female CD1 mouse model assessed as decrease in NLR value at 1 mg measured per ear administered topically incubated for 4 hrs by microscopic analysis relative to control; type: functional; set-up: scale not given: the % may be the effect or the level left
Mus musculus [12] = test: Antiinflammatory activity against TPA-induced ear edema in female CD1 mouse model assessed as decrease in NLR value at 3 mg measured per ear administered topically incubated for 4 hrs by microscopic analysis relative to control; type: functional; set-up: scale not given: the % may be the effect or the level left

In the case of `COc1ccc2cc([C@H](C)C(=O)OCC(C)(N[C@@H](C)c3ccccc3)P(=O)(OC)OC)ccc2c1` (stereo partly drawn), the Activity (Mus musculus [1]) is reported as “Dose-dependent-effect”, the Emax (Mus musculus [2]) is reported as 93.9% and the ED50 (Mus musculus [3]) is reported as 0.26 mg. The “Ratio ED50” value (Mus musculus [4]) was 2.1, the Activity (Mus musculus [5]) was 46.7% and the Activity (Mus musculus [6]) was 47.8%. The Activity (Mus musculus [7]) was 21.7%, the logP [8] was 4.8 and the Activity (Mus musculus [9]) was “Active”. The Activity (Mus musculus [10]) was “inactive”.

In the case of `COP(=O)(OC)C(C)(COC(=O)c1ccccc1)NCc1ccccc1` (stereo not drawn), the Activity (Mus musculus [1]) is reported as “Dose-dependent-effect”, the Emax (Mus musculus [2]) is reported as 83.3% and the ED50 (Mus musculus [3]) is reported as 0.49 mg. The “Ratio ED50” value (Mus musculus [4]) was 1.1, the Activity (Mus musculus [6]) was 47.8% and the Activity (Mus musculus [7]) was 21.7%. For the same molecule, the logP [8] was 4.2, the Activity (Mus musculus [9]) was “Active” and the Activity (Mus musculus [10]) was “inactive”.

With `COc1ccc2cc([C@H](C)C(=O)OCC(C)(NCc3ccccc3)P(=O)(OC)OC)ccc2c1` (stereo partly drawn) the Activity (Mus musculus [1]) was “Dose-dependent-effect”, the Emax (Mus musculus [2]) was 84.8% and the ED50 (Mus musculus [3]) was 0.53 mg. For the same molecule, the “Ratio ED50” value (Mus musculus [4]) was 1, the Activity (Mus musculus [6]) was 47.8% and the Activity (Mus musculus [7]) was 21.7%. For the same molecule, the logP [8] was 4.5, the Activity (Mus musculus [9]) was “Active” and the Activity (Mus musculus [10]) was “inactive”.

Molecule `COc1ccc2c(c1)c(CC(=O)O)c(C)n2C(=O)c1ccc(Cl)cc1` [INDOMETHACIN] has an Emax (Mus musculus [2]) of 89.3%, an ED50 (Mus musculus [3]) of 0.54 mg and an Activity (Mus musculus [11]) of 59.3%. It also gave an Activity (Mus musculus [6]) of 58.7%, an Activity (Mus musculus [7]) of 36.5% and a logP [8] of 3.99. The Activity (Mus musculus [9]) was “Active” and the Activity (Mus musculus [10]) was “inactive”.

In the case of `COP(=O)(OC)C(C)(COC(=O)c1ccccc1)N[C@@H](C)c1ccccc1` (stereo partly drawn), the Activity (Mus musculus [1]) is reported as “Dose-dependent-effect”, the Emax (Mus musculus [2]) is reported as 91.8% and the ED50 (Mus musculus [3]) is reported as 0.46 mg. For the same molecule, the “Ratio ED50” value (Mus musculus [4]) was 1.2, the Activity (Mus musculus [12]) was 64.7% and the Activity (Mus musculus [6]) was 47.8%. For the same molecule, the Activity (Mus musculus [7]) was 21.7%, the logP [8] was 4.4 and the Activity (Mus musculus [9]) was “Active”. The Activity (Mus musculus [10]) was “inactive”.

In the case of `COc1ccc2cc([C@H](C)C(=O)O)ccc2c1` [NAPROXEN], the Activity (Mus musculus [1]) is reported as “Dose-dependent-effect”, the Emax (Mus musculus [2]) is reported as 90.6% and the ED50 (Mus musculus [3]) is reported as 0.13 mg. It also gave an Activity (Mus musculus [11]) of 57.1%, an Activity (Mus musculus [6]) of 55.4% and an Activity (Mus musculus [7]) of 39.8%. The Activity (Mus musculus [9]) was “Active” and the Activity (Mus musculus [10]) was “inactive”.

With `CCC(=O)OCC(C)(NCc1ccccc1)P(=O)(OC)OC` (stereo not drawn) the Activity (Mus musculus [1]) was “Dose-dependent-effect”, the Emax (Mus musculus [2]) was 90.1% and the ED50 (Mus musculus [3]) was 0.48 mg. The “Ratio ED50” value (Mus musculus [4]) was 1.1, the Activity (Mus musculus [5]) was 48% and the Activity (Mus musculus [6]) was 47.8%. For the same molecule, the Activity (Mus musculus [7]) was 21.7%, the logP [8] was 3.3 and the Activity (Mus musculus [9]) was “Active”. For the same molecule, the Activity (Mus musculus [10]) was “inactive”.

In the case of `CCC(=O)OCC(C)(N[C@@H](C)c1ccccc1)P(=O)(OC)OC` (stereo partly drawn), the Activity (Mus musculus [1]) is reported as “Dose-dependent-effect”, the Emax (Mus musculus [2]) is reported as 85.9% and the ED50 (Mus musculus [3]) is reported as 0.66 mg. For the same molecule, the “Ratio ED50” value (Mus musculus [4]) was 0.8, the Activity (Mus musculus [6]) was 47.8% and the Activity (Mus musculus [7]) was 21.7%. The logP [8] was 3.5, the Activity (Mus musculus [9]) was “Active” and the Activity (Mus musculus [10]) was “inactive”.
